Experimental data taken from patent publication US9456992B2 (XSPRAY MICROPARTICLES AB, priority 2012, dated 2016).
Structures can show the parent of a compound that is named as a salt.

Tests used:
[1] = Dissolution measurement assay (apparent solubility, non-sink) in FaSSIF solution (pH 6.5); settings: for AUC/ 80 min. Mg/min/L: Area Under the Curve during 80 minutes dissolution in FaSSIF solution (pH 6.5)
Procedure: The medium was prepared in accordance with the manufacturer's instructions. The amount of powder added depends on the wished “total PKI concentration”. […] For other experiments, the drug load was first estimated by HPLC and the amount of powder to obtain the drug concentration was calculated.
Typically, the powder was added in a 8 mL glass bottle and 7 mL of solution was added (typically FaSSIF, FeSSIF or SGF). The glass bottle was put on a shaker (approximately 1 rotation per minute) for dissolution. Samples of 500 μl where taken after different times, and subsequently centrifuged at approximately 15000 g for 3 minutes. The resulting supernatant was then analyzed by HPLC (C18 column Eclipse, 4.6 mm×15 cm, 1 mL/min, detection at […]. Generally samples were taken after 5, 30 and 90 min and eventually 150 min.
(§1) A number of experiments were carried out, wherein nilotinib base or nilotinib HCl represented the protein kinase inhibitor. The experiments were carried out by measuring concentration of solubilized PKI (mg/L) after 5, 30 and 90 minutes dissolution in a solution at about pH 6.5, namely FaSSIF (Fasted State Simulated Intestinal Fluid). Further, experiments were carried out in an alternative solution at about pH 5, namely FeSSIF (Fed State Simulated Intestinal Fluid). Samples of the solution were taken at various time intervals and the amount of protein kinase inhibitor was measured by the dissolution measurement assay described above.
as §1, with “erlotinib” for “nilotinib base or nilotinib”, “PKI.” for “protein kinase inhibitor.”, “of” for “of solubilized”, “PKI” for “protein kinase inhibitor”
as §1, with “pazopanib” for “nilotinib base or nilotinib HCl”, “PKI.” for “protein kinase inhibitor.”, “of” for “of solubilized”, “PKI” for “protein kinase inhibitor”
(§2) A number of experiments were carried out, wherein lapatinib base or lapatinib ditosylate salt represented the PKI. The experiments were carried out by measuring concentration of PKI (mg/L) after 5, 30 and 90 minutes dissolution in a solution at about pH 6.5, namely FaSSIF (Fasted State Simulated Intestinal Fluid). Samples of the solution were taken at various time intervals and the amount of PKI was measured by the dissolution measurement assay described above.
as §2, with “gefitinib” for “lapatinib base or lapatinib ditosylate salt”, “3, 40” for “5, 30”, “80” for “90”
as §2, with “dasatinib” for “lapatinib base or lapatinib ditosylate salt”, “3, 40” for “5, 30”, “80” for “90”

[2] = Dissolution rate measurement in sink conditions, flow through cell system, FaSSIF, 37° C.; format: physicochemical; settings: sink condition in FaSSIF; for Initial Dissolution Rate: initial slope of accumulated % solubilized vs time, 0 to 10 minutes, 37° C.
Procedure: Typically, said dissolution rate is measured by a flow through cell system in sink conditions, e.g., according to the US Pharmacopea (USP4). Dissolution measurement in sink conditions of hybrid nanoparticles may be measured in a method consisting of adding the wished amount of powder into a flow through cell system (SOTAX, Allschwill, Switzerland), mounting the cell onto its apparatus and then pumping the appropriate medium (typically FaSSIF, FeSSIF, SGF) through the powder. The temperature of the apparatus is typically set to 37° C. The amount of powder added into the cell depends on drug load of the powder: The exact amount of powder can be calculated from results obtained from drug load analysis of the powders. The PKI may be added into the flow through cell and a flow rate between 5 and 25 ml medium/min is pumped through the powder. […] Samples are typically taken after 0, 0.5, 1, 1.5, 2, 3, 4, 5, 6, 7, 8, 9, 10, 15, 20, 25, 30, 35 and 40 min from the moment the medium comes out from the flow through cell. The accumulated % solubilized of the amount of active substance added into the flow through cell can be calculated and plotted against time (min). The initial slope (“initial dissolution rate”, representing 0-10 minutes) of the graph may be estimated and taken as the dissolution rate of the material in sink condition at 37° C. in the given dissolution medium.
Typically, said dissolution rate is measured by a flow through cell system, for instance in sink conditions. […] The temperature of the apparatus is typically set to 37° C. The amount of powder added into the cell depends on drug load of the powder: The exact amount of powder can be calculated from results obtained from drug load analysis of the powders. The PKI may be added into the flow through cell and a flow rate between 5 and 25 ml medium/min is pumped through the powder. […] Samples are typically taken after 0, 0.5, 1, 1.5, 2, 3, 4, 5, 6, 7, 8, 9, 10, 15, 20, 25, 30, 35 and 40 min from the moment the medium comes out from the flow through cell. The accumulated % solubilized of the amount of active substance added into the flow through cell, can be calculated and plotted against time (min). The initial slope (“initial dissolution rate”, representing 0-10 minutes) of the graph can be estimated and taken as the dissolution rate of the material in sink condition at 37° C. in the given dissolution medium.
Dissolution measurement in sink conditions of compositions of the invention were measured in a method consisting of adding the wished amount of powder into a flow through cell system (SOTAX, Allschwill, Switzerland), mounting the cell onto its apparatus and then pumping the appropriate medium (typically FaSSIF, FeSSIF, SGF) through the powder. The temperature of the apparatus was set to 37° C. The amount of powder added into the cell depends on drug load of the powder: The exact amount of powder was calculated from results obtained from drug load analysis of the powders.
Typically, 3.5 to 7 mg PKI was added into the flow through cell and a flow rate between 8 and 16 ml medium/min (preferably about 8 ml medium/min) was pumped through the powder. One ml samples of the medium passing through the cell were collected at predetermined times. […] Samples were taken after 0, 0.5, 1, 1.5, 2, 3, 4, 5, 6, 7, 8, 9, 10, 15, 20, 25, 30, 35 and 40 min from the moment the medium comes out from the flow through cell. The accumulated % solubilized of the amount of active substance added into the flow through cell was calculated and plotted against time (min). The initial slope (“initial dissolution rate”) of the graph was estimated, as measured during 0 to 10 minutes, and taken as the dissolution rate of the material in sink condition at 37° C. in the given dissolution medium.

[3] = nilotinib HCl, FaSSIF solution (pH 6.5), after 30 minutes dissolution, HCl

## Cc1cn(-c2cc(NC(=O)c3ccc(C)c(Nc4nccc(-c5cccnc5)n4)c3)cc(C(F)(F)F)c2)cn1 [Exp 1, Nilotinib HCl]
[1]; [3]
  % solubilized 30 min.: 0.20%
[1]; nilotinib, FaSSIF solution (pH 6.5), Area Under the Curve during 90 minutes dissolution, HCl
  AUC/ 90 min. Mg/min/L: 13.0 Mg/min/L

## Cc1cn(-c2cc(NC(=O)c3ccc(C)c(Nc4nccc(-c5cccnc5)n4)c3)cc(C(F)(F)F)c2)cn1 [Exp 2, Nilotinib HCl]
[1]; [3]
  % solubilized 30 min.: 0.04%

## Cc1cn(-c2cc(NC(=O)c3ccc(C)c(Nc4nccc(-c5cccnc5)n4)c3)cc(C(F)(F)F)c2)cn1 [Exp 3, Nilotinib HCl]
[1]; [3]
  % solubilized 30 min.: 0.03%

## Cc1cn(-c2cc(NC(=O)c3ccc(C)c(Nc4nccc(-c5cccnc5)n4)c3)cc(C(F)(F)F)c2)cn1 [Exp 4, Nilotinib Base]
[1]; nilotinib HCl, FaSSIF solution (pH 6.5), after 30 minutes dissolution
  % solubilized 30 min.: 0.50%

## C#Cc1cccc(Nc2ncnc3cc(OCCOC)c(OCCOC)cc23)c1 [Exp 58, erlotinib HCl]
[1]; 90 min, pH 6.5
  Conc (mg/L) 90 min: 4.6 mg/L
[1]; erlotinib HCl, FaSSIF solution (pH 6.5), 30 min dissolution
  % solubilized 30 min.: 0.6%
[1]; erlotinib HCl, FaSSIF solution (pH 6.5), AUC during 90 min dissolution
  AUC/ 90 min.: 837 Mg/min/L

## Cc1ccc(Nc2nccc(N(C)c3ccc4c(C)n(C)nc4c3)n2)cc1S(N)(=O)=O [Exp 84, pazopanib]
[1]; 30 min, pH 6.5
  % solubilized 30 min.: 2.4%
[1]; 90 min, pH 6.5
  Conc (mg/L) 90 min: 15.0 mg/L

## CS(=O)(=O)CCNCc1ccc(-c2ccc3ncnc(Nc4ccc(OCc5cccc(F)c5)c(Cl)c4)c3c2)o1 [Exp 110, lapatinib base]
[1]; lapatinib, 5 minutes dissolution in FaSSIF solution (pH 6.5)
  Conc (mg/L) 5 min: 2.9 mg/L
[1]; lapatinib, 30 minutes dissolution in FaSSIF solution (pH 6.5)
  Conc (mg/L) 30 min: 6.0 mg/L
[1]; lapatinib, 90 minutes dissolution in FaSSIF solution (pH 6.5)
  Conc (mg/L) 90 min: 6.5 mg/L
[1]; lapatinib, Area Under the Curve during 90 minutes dissolution in FaSSIF solution (pH 6.5)
  AUC/ 90 min. Mg/min/L: 494 Mg/min/L
[1]; lapatinib, after 30 minutes dissolution in FaSSIF solution (pH 6.5)
  % solubilized 30 min.: 0.3%

## COc1cc2ncnc(Nc3ccc(F)c(Cl)c3)c2cc1OCCCN1CCOCC1 [Exp 131, gefitinib]
[1]; gefitinib
  AUC/ 80 min. Mg/min/L: 5967 Mg/min/L

## Cc1nc(Nc2ncc(C(=O)Nc3c(C)cccc3Cl)s2)cc(N2CCN(CCO)CC2)n1 [Exp 138, dasatinib]
[1]; dasatinib
  AUC/ 80 min. Mg/min/L: 2396 Mg/min/L
[1]; dasatinib, after 40 minutes dissolution in FaSSIF solution (pH 6.5)
  % solubilized 40 min.: 6.0%

## CNC(=O)c1cc(Oc2ccc(NC(=O)Nc3ccc(Cl)c(C(F)(F)F)c3)cc2)ccn1 [Exp 142, sorafenib tosylate]
[1]; 40 min, pH 6.5
  Conc (mg/L) 40 min: 343.51 mg/L

## CNC(=O)c1ccccc1Sc1ccc2c(/C=C/c3ccccn3)n[nH]c2c1 [Exp 157, axitinib]
[1]; pH 6.5
  Conc (mg/L) 3 min: 0.6 mg/L
  Conc (mg/L) 80 min: 0.6 mg/L
[1]; 40 min, pH 6.5
  Conc (mg/L) 40 min: 0.6 mg/L
[1]; axitinib
  AUC/ 80 min. Mg/min/L: 4.7 Mg/min/L
[1]; axitinib, after 40 minutes dissolution in FaSSIF solution (pH 6.5)
  % solubilized 40 min.: 0.1%

## CCCS(=O)(=O)Nc1ccc(F)c(C(=O)c2c[nH]c3ncc(-c4ccc(Cl)cc4)cc23)c1F [Exp 164, vemurafenib]
[1]; pH 6.5
  Conc (mg/L) 3 min: 0.3 mg/L
  Conc (mg/L) 80 min: 0.4 mg/L
[1]; 40 min, pH 6.5
  % solubilized 40 min.: 0.1%
  Conc (mg/L) 40 min: 0.3 mg/L

## Cc1cn(-c2cc(NC(=O)c3ccc(C)c(Nc4nccc(-c5cccnc5)n4)c3)cc(C(F)(F)F)c2)cn1 [Exp 500, nilotinib HCl]
[2]
  Initial Dissolution Rate: 0.27

## COc1cc2ncnc(Nc3ccc(F)c(Cl)c3)c2cc1OCCCN1CCOCC1 [Exp 540, gefitinib]
[2]
  Initial Dissolution Rate: 2.2

## CNC(=O)c1cc(Oc2ccc(NC(=O)Nc3ccc(Cl)c(C(F)(F)F)c3)cc2)ccn1 [Exp 560, sorafenib tosylate]
[2]
  Initial Dissolution Rate: 0.47

## C[C@@H](Oc1cc(-c2cnn(C3CCNCC3)c2)cnc1N)c1c(Cl)ccc(F)c1Cl [Exp 570, crizotinib]
[2]
  Initial Dissolution Rate: 6.6

## CNC(=O)c1cc(Oc2ccc(NC(=O)Nc3ccc(Cl)c(C(F)(F)F)c3)cc2)ccn1.Cc1ccc(S(=O)(=O)O)cc1 [Experiment 560]
[2]; 0 min
  Accumulated % of solubilized of remaining active substance at a given time (min): 0.2%
[2]; 0.5 min
  Accumulated % of solubilized of remaining active substance at a given time (min): 0.4%
[2]; 1 min
  Accumulated % of solubilized of remaining active substance at a given time (min): 0.7%
[2]; 1.5 min
  Accumulated % of solubilized of remaining active substance at a given time (min): 1.0%
[2]; 2 min
  Accumulated % of solubilized of remaining active substance at a given time (min): 1.3%
[2]; 3 min
  Accumulated % of solubilized of remaining active substance at a given time (min): 1.8%
[2]; 4 min
  Accumulated % of solubilized of remaining active substance at a given time (min): 2.2%
[2]; 5 min
  Accumulated % of solubilized of remaining active substance at a given time (min): 2.6%
[2]; 6 min
  Accumulated % of solubilized of remaining active substance at a given time (min): 3.0%
[2]; 7 min
  Accumulated % of solubilized of remaining active substance at a given time (min): 3.4%
[2]; 8 min
  Accumulated % of solubilized of remaining active substance at a given time (min): 3.8%
[2]; 9 min
  Accumulated % of solubilized of remaining active substance at a given time (min): 4.2%
[2]; 10 min
  Accumulated % of solubilized of remaining active substance at a given time (min): 4.6%
[2]; 20 min
  Accumulated % of solubilized of remaining active substance at a given time (min): 8.8%
